Common to all, as to format: cell-based
Test [1] relates to NFkB driven firefly luciferase activity. The test is described as follows: A549-NFkB-firefly luciferase reporter assay (FireLITE). The note with it: A549-NFkB-firefly cells, stimulation with 0.5 ng/ml TNFα. As for the experimental part:
The firefly luciferase gene driven by a promoter containing five copies of the nuclear factor kB consensus sequence (GGGGACTTTCC) was derived from the pNF-kB-Luc plasmid, purchased from Stratagene, and subcloned into the pcDNA3 vector, deleted of the CMV promoter, in order to generate the construct p5NFkB-firefly-neo.
(§1) A549 cells were maintained in 5% CO2 at 37° C. in DMEM containing 10% foetal calf serum and 2 mM L-glutamine. Cells were stably transfected with p5NFkB-firefly-neo, p3GRE-renilla-neo or pAPI-firefly-neo using electroporation procedure. […] These cell lines were maintained in DMEM containing 10% foetal calf serum, 2 mM L-glutamine and 1 mg/ml G418.
(§2) Cells were plated into individual wells of a white 96-well viewplate at a cell density of 4×10^4/well in 100 μl of growth medium.
The individual cell clones were first characterised for responsiveness in isolation.

Test [2] deals with AP-1 driven firefly-luciferase activity. The test is described as follows: A549-AP1-firefly luciferase reporter assay. As to conditions: A549-AP1-firefly cells, stimulation with 10 ng/ml EGF. As for the experimental part:
Similarly the minimal region of the Interleukin-2 promoter containing 4 AP-1 binding sites was cloned upstream of the firefly luciferase gene to generate pAP1-firefly-neo
as §1, §2
This cell line can therefore be used to monitor the repression of AP-1 signalling by glucocorticoid receptor ligands.

Test [3] relates to GRE-mediated gene transcription. Nature of the test: A549-GRE-Renilla luciferase reporter assay. The note with it: A549-GRE-Renilla cells.
Excerpt: A synthetic GR responsive promoter consisting of three copies of the consensus glucocorticoid responsive element (GRE) (AGAACAnnnTGTACC) linked to a minimal herpes simplex thymidine kinase (HSV-TK) promoter was derived from the pGRE-SEAP plasmid purchased from Clontech. This was placed upstream of the Renilla luciferase reporter gene, contained in the pRLNull vector (Promega), to create the reporter construct p3GRE-renilla. The GRE containing promoter together with the renilla luciferase gene were then subcloned into the pcDNA3 vector, deleted of the CMV promoter, in order to generate the construct p3GRE-renilla-neo.
as §1, §2
This cell line will provide a means of measuring direct effects of glucocorticoid receptor agonists on GRE-mediated gene transcription.

Data on three compounds can be found in US20030091978A1, “Assay for glucocorticoid receptor signalling pathway” (priority 2000, published 2003).

Turning to TNFα, in test [1], the “increase in firefly luciferase activity” value is reported as 4.2 fold.

As to “EGF: stimulatory factor used to activate AP-1 driven transcription”, the “increase in expression of firefly luciferase” value in test [2] turned out to be 2.4 fold.

As to `C[C@@H]1C[C@H]2[C@@H]3CCC4=CC(=O)C=C[C@]4(C)[C@@]3(F)[C@@H](O)C[C@]2(C)[C@@]1(O)C(=O)CO` [dexamethasone], in test [3], the “maximal stimulation above basal of renilla luciferase activity” value amounted to 3 fold.
